Measurements from patent US11479533B2, “Inhibitors of Rho associated coiled-coil containing protein kinase” (KADMON CORPORATION, LLC, priority 2017, dated 2022).
Read-outs that look alike come from different tables or passages of the source.

How the values were obtained:
[1] = tested on: human oligodendrocyte/neuron progenitor cells; assay: Chondroitin Sulfate Proteoglycan (CSPG) assay on human oligodendrocyte/neuron progenitors; type: cell-based; settings: 1 μM and 3 μM, 72 hour
Experimental: Chondroitin Sulfate Proteoglycan (CSPG) assay on human oligodendrocyte/neuron progenitors in 96-well plate. […] Cells were seeded on the coated plates at a density of 6,000 cells per well in expansion media. The following day the expansion media was replaced with fresh spontaneous differentiation media containing testing compounds. Cells were imaged and neurite length was analyzed by IncuCyte S3 Live Cell Analysis System every 4 hours.

[2] = target: recombinant ROCK2 (amino acids 1-552) (Homo sapiens (Human), UniProt O75116); assay: Z'-lyte kinase assay, ROCK2; type: biochemical
In short: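 Inhibition of recombinant human ROCK2 (residues 1-552, sourced from ThermoFisher Scientific) was assessed in vitro with the Z'-lyte kinase kit. Kinase activity with compound was normalized to DMSO control to give percent inhibition. IC50s came from 9-point 2-fold serial dilutions fitted by nonlinear regression in GraphPad Prism.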

[3] = tested on: ACTA2-promoter-driven-luciferase in NIH3T3 cells; assay: NIH3T3 Acta2-promoter driven-luciferase assay; type: cell-based; settings: Mus musculus, plus TGFβ1, 24 hr, read-out: NIH3T3, Acta2-luc, IC50
In short: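 Stable NIH3T3 line carrying luciferase reporter under human ACTA2 promoter (−1000-1 bp); confluent cells given 9-point compound dilutions with TGFβ1 for 24 hr. Lysed cells read for luciferase; IC50 from nonlinear regression fit.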

[4] = tested on: bleomycin induced lung fibrosis; assay: Bleomycin induced lung fibrosis in mice (therapeutic administration); type: in vivo, mouse; settings: oral once daily Day 7 to Day 20
Experimental: Bleomycin induced lung fibrosis in mice (therapeutic administration): Male C57B/L6 mice were housed for acclimation for no less than 7 days. After acclimation period, animals were randomly assigned to treatment groups. On day 0, mice were anesthetized with 5% isoflurane by inhalation for 10-15 mins and then suspended by their front teeth on a wire attached to a fixed animal operating plate. 50 μL of saline or bleomycin solution was administered via intratracheal instillation. Mice in treatment groups were intratracheally instilled with bleomycin hydrochloride (BLM) 2.0 U/kg (mg/kg) in sterile saline. On day 7 following bleomycin administration, half of the animals in vehicle group were sacrificed to establish a baseline for the level of fibrosis at the treatment initiation. Mice in normal control group received saline by p.o. once daily from Day 7 to Day 20. Treatment group mice received the compound dosed orally once daily from Day 7 to Day 20. On Day 20, 2-3 hours posted the last dose, all mice were sacrificed. Lungs were gently lavaged via the tracheal cannula with 0.8 mL of PBS containing 1% BSA and 0.6 mM EDTA. […] The activity of ROCK inhibitors in attenuating pulmonary fibrosis in a therapeutic dosing setting was assessed in a bleomycin-induced model, following intratracheal bleomycin installation to induce lung tissue damage and consequent fibrosis of the lung. […]

[5] = target: recombinant ROCK1 (amino acids 1-535) (Homo sapiens (Human), UniProt Q13464); assay: Z'-lyte kinase assay, ROCK1; type: biochemical
Experimental: Determination of compounds ROCK inhibitory activity in vitro (Z'lyte assay): recombinant ROCK1 (amino acids 1-535) and ROCK2 (amino acids 1-552) proteins were purchased from ThermoFisher Scientific. Compounds activities were measured by Z'-lyte kinase kit (ThermoFisher Scientific) and IC50s were calculated.
Compounds activities were measured by Z'-lyte kinase kit (ThermoFisher Scientific). […] IC50s were calculated using the GraphPad Prism software with kinase activities data that were collected from 9 points serial dilution of compounds treatment. The ROCK inhibition in A7R5 cells and NIH3T3 (Acta2-Luc) cells was performed as described above.
The percent inhibition rate was calculated by normalizing the kinase activity value obtained with compound treatment against DMSO control value and then applied to the equation, […]. IC50's were calculated using the nonlinear regression curve fit function of the GraphPad Prism software with kinase activities data measured with 9 points 2-fold serial dilution of compounds treatment.

[6] = Brain and plasma concentrations in mouse by HPLC/MS/MS; type: in vivo; settings: 2.5 mg/kg IV
Experimental: Brain and plasma concentrations of select ROCK inhibitors were evaluated in mouse by HPLC/MS/MS at 15 min and 2 hrs following 2.5 mg/kg IV drug administration.

[7] = tested on: histamine-induced vascular permeability; assay: Histamine-induced vascular permeability model in mice; type: in vivo, mouse; settings: single oral dose 1 hr. prior to histamine injection
Experimental: Histamine-induced vascular permeability model in mice: 7-8 weeks old Balb/c female mice were acclimated at least 3 days, and randomly assigned to groups. Animals were injected i.v. with 1% Evans Blue at a dose 100 μl/mouse. 10 minutes later animals in disease groups were given 1 μg of histamine in 20 μl PBS intradermally on the back and sacrificed 20 minutes after administration. 20 μL PBS were injected intradermal into the animal back in sham control. Vehicle and test articles were dosed via oral gavage accordingly. Positive control salbutamol was administered 15 minutes before Evans blue. 20 minutes post challenge with histamine, animals were euthanized. The skin was then inverted, the lesion diameters were measured. The area of the lesion was calculated and expressed in square millimeters. Following diameter measurements, Evan's Blue dye was extracted from the skin tissue and the optical density was measured. Data are calculated against a spiked in Evan's Blue standard curve. The extent of compound efficacy was quantitated by calculating both the overall skin spot area and the amount of Evans Blue dye permeating the skin. 20 Minutes post challenge with histamine, animals were euthanized, the lesion diameters were measured. The area of the lesion was calculated and expressed in square millimeters. […]

Sequence of recombinant ROCK2 (amino acids 1-552) (O75116 1-552): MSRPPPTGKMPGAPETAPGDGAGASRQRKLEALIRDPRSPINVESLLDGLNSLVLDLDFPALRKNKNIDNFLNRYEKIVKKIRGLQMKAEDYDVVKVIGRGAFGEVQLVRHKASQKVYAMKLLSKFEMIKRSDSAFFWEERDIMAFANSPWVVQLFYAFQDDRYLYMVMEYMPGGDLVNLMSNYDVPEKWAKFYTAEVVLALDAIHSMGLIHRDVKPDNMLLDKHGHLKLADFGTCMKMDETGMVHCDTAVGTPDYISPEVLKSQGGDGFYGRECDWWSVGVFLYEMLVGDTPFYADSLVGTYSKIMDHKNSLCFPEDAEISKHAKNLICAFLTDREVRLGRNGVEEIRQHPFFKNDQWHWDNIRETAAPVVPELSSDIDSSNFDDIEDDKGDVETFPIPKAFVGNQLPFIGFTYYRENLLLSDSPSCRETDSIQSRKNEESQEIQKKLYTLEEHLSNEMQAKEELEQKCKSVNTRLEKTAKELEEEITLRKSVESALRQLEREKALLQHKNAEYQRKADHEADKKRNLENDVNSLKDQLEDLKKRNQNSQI
Sequence of recombinant ROCK1 (amino acids 1-535) (Q13464 1-535): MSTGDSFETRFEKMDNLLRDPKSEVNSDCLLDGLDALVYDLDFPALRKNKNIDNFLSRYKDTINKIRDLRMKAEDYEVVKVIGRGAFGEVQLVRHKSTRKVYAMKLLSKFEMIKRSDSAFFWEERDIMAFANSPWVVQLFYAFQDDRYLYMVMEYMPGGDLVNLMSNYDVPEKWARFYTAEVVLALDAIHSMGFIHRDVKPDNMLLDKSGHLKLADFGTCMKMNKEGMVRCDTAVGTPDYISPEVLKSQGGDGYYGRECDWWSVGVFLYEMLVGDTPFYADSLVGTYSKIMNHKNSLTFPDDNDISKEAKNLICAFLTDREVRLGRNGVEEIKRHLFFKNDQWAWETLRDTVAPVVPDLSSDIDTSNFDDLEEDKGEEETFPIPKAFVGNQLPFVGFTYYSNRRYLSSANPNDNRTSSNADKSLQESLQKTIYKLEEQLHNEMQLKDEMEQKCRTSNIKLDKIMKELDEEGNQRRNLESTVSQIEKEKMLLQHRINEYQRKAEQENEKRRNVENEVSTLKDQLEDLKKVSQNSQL

**Q.** With CNC(C(=O)Nc1ccc(-c2cn[nH]c2)cc1)c1cccc(OC)c1 (stereo not drawn) [Example 2, N-(4-(1H-pyrazol-4-yl)phenyl)-2-(3-methoxyphenyl)-2-(methylamino)acetamide] as the compound, how does the “CSPG mediated neurite outgrowth arrest” value [1] read?
**A.** significantly counteract

**Q.** And the IC50 [2]?
**A.** 4 nM

**Q.** And the IC50 [3]?
**A.** 352 nM

**Q.** What about the “collagen amounts in the lungs (Masson's trichrome)” value [4] of the same compound?
**A.** significantly lower

**Q.** What about the IC50 [5] of the same compound?
**A.** 17 nM

**Q.** What about the concentration at 0.25 hr ([6]; brain, 0.25 hr, read-out: Mean Conc. at 0.25 hr, Brain) of the same compound?
**A.** 541 ng/g

**Q.** What about the concentration at 2 hr ([6]; brain, 2 hr, read-out: Mean Conc. at 2 hr, Brain) of the same compound?
**A.** 76.6 ng/g

**Q.** And the concentration at 0.25 hr ([6]; plasma, 0.25 hr, read-out: Mean Conc. at 0.25 hr, Plasma)?
**A.** 268 ng/mL

**Q.** And the concentration at 2 hr ([6]; plasma, 2 hr, read-out: Mean Conc. at 2 hr, Plasma)?
**A.** 25.7 ng/mL

**Q.** What about the Kp at 0.25 h ([6]; brain/plasma, 0.25 hr, read-out: Mean Brain/Plasma Ratio at 0.25 hr) of the same compound?
**A.** 2.01

**Q.** And the Kp at 2 h ([6]; brain/plasma, 2 hr, read-out: Mean Brain/Plasma Ratio at 2 hr)?
**A.** 2.99

**Q.** What about the “vascular permeability induced by histamine (Evan's Blue extravasation)” value [7] of the same compound?
**A.** blocked the vascular permeability induced by histamine in a dose dependent manner
